Two compounds from PMC9896412, “The role of invariant surface glycoprotein 75 in xenobiotic acquisition by African trypanosomes” (Microbial Cell, 2023) can be followed below.

The target in test [1] is T1, invariant surface glycoprotein 75 (ISG75) (Trypanosoma brucei, UniProt Q1WK95). Briefly: biochemical.
The target in test [2] is T1, invariant surface glycoprotein 75 (ISG75). Briefly: ITC (tag-free protein from S2 cells). It is filed as binding.

Broadly, the Kd is the free concentration of one partner at which half of the binding sites on the other are occupied at equilibrium, for simple one-to-one binding. A higher Kd goes with lower affinity. Consider `Cc1ccc(C(=O)Nc2ccc(S(=O)(=O)O)c3cc(S(=O)(=O)O)cc(S(=O)(=O)O)c23)cc1NC(=O)c1cccc(NC(=O)Nc2cccc(C(=O)Nc3cc(C(=O)Nc4ccc(S(=O)(=O)O)c5cc(S(=O)(=O)O)cc(S(=O)(=O)O)c45)ccc3C)c2)c1` [suramin], for which, in test [1], binding was characterised by a dissociation constant (Kd) of 3.2 µM.
For the compound `Cc1cc(-c2ccc(/N=N/c3c(S(=O)(=O)O)cc4cc(S(=O)(=O)O)cc(N)c4c3O)c(C)c2)ccc1/N=N/c1c(S(=O)(=O)O)cc2cc(S(=O)(=O)O)cc(N)c2c1O` [trypan blue], in test [2], the Kd was 0.6 µM.
